Measured values published in publication PMC5218480 (PLoS ONE, 2017).

Tested on: MV-4-11 cells
Assay: Gene expression microarray analysis (Affymetrix PrimeView) and GSEA
Type: cell-based, human
Design: RFU PODN (11730768_x_at) / Fold change /veh PODN (11730768_x_at) / RFU LINC00158 (11744669_a_at) / Fold change /veh LINC00158 (11744669_a_at) / RFU DUSP10 (11751237_a_at) / Fold change /veh DUSP10 (11751237_a_at) / RFU ID3 (11757404_x_at) / Fold change /veh ID3 (11757404_x_at) / RFU PLEKHG5 (11737974_s_at) / Fold change /veh PLEKHG5 (11737974_s_at) / RFU LRRC4B (11730491_at) / Fold change /veh LRRC4B (11730491_at) / RFU GIMAP4 (11747438_a_at) / Fold change /veh GIMAP4 (11747438_a_at) / RFU KRT8 (11758183_x_at) / Fold change /veh KRT8 (11758183_x_at) / RFU CNN1 (11734310_a_at) / Fold change /veh CNN1 (11734310_a_at) / RFU VPS37D (11726825_at) / Fold change /veh VPS37D (11726825_at) / RFU C10orf10 (11716522_x_at) / Fold change /veh C10orf10 (11716522_x_at) / RFU KIR2DL2 /// KIR2DL4 /// KIR2DL5A /// KIR2DL5B /// KIR2DS1 /// KIR2DS2 /// KIR2DS3 /// KIR2DS4 /// KIR3DL3 /// KIR3DL3 /// KIR3DS1 (11738374_at) / Fold change /veh KIR2DL2 /// KIR2DL4 /// KIR2DL5A /// KIR2DL5B /// KIR2DS1 /// KIR2DS2 /// KIR2DS3 /// KIR2DS4 /// KIR3DL3 /// KIR3DL3 /// KIR3DS1 (11738374_at) / RFU C1QL1 (11718748_at) / Fold change /veh C1QL1 (11718748_at) / RFU TMPRSS4 (11747572_a_at) / Fold change /veh TMPRSS4 (11747572_a_at) / RFU HAMP (11756126_x_at) / Fold change /veh HAMP (11756126_x_at) / RFU RNFT2 (11725882_a_at) / Fold change /veh RNFT2 (11725882_a_at) / RFU NR4A2 (11747474_a_at) / Fold change /veh NR4A2 (11747474_a_at) / RFU ABCC12 (11746883_a_at) / Fold change /veh ABCC12 (11746883_a_at) / RFU TMEM136 (11760407_x_at) / Fold change /veh TMEM136 (11760407_x_at) / RFU CLDN22 /// WWC2 (11732394_at) / Fold change /veh CLDN22 /// WWC2 (11732394_at) / RFU HLA-DPB1 (11760878_x_at) / Fold change /veh HLA-DPB1 (11760878_x_at) / RFU SPINT1 (11716480_a_at) / Fold change /veh SPINT1 (11716480_a_at) / RFU GAP43 (11754022_s_at) / Fold change /veh GAP43 (11754022_s_at) / RFU A4GNT (11735810_at) / Fold change /veh A4GNT (11735810_at) / RFU PRB3 (11715151_x_at) / Fold change /veh PRB3 (11715151_x_at) / RFU TUBB4B (11761932_at) / Fold change /veh TUBB4B (11761932_at) / RFU CAPN14 (11732068_a_at) / Fold change /veh CAPN14 (11732068_a_at) / RFU TMCC2 (11721928_a_at) / Fold change /veh TMCC2 (11721928_a_at) / RFU IRGQ (11745062_a_at) / Fold change /veh IRGQ (11745062_a_at) / RFU FAM174B (11720279_a_at) / Fold change /veh FAM174B (11720279_a_at) / RFU TMPRSS4 (11748680_a_at) / Fold change /veh TMPRSS4 (11748680_a_at) / RFU FAM212B (11763350_a_at) / Fold change /veh FAM212B (11763350_a_at) / RFU PLEKHG5 (11743358_a_at) / Fold change /veh PLEKHG5 (11743358_a_at) / RFU ZSCAN30 (11745921_a_at) / Fold change /veh ZSCAN30 (11745921_a_at) / RFU CMKLR1 (11741424_a_at) / Fold change /veh CMKLR1 (11741424_a_at) / RFU LOC101060620 /// MAPK8IP1 (11723275_at) / Fold change /veh LOC101060620 /// MAPK8IP1 (11723275_at) / RFU SPTSSB (11747773_x_at) / Fold change /veh SPTSSB (11747773_x_at) / RFU PRSS12 (11739890_at) / Fold change /veh PRSS12 (11739890_at) / RFU BIN1 (11741810_x_at) / Fold change /veh BIN1 (11741810_x_at) / RFU WNT11 (11732464_a_at) / Fold change /veh WNT11 (11732464_a_at) / RFU C10orf10 (11716521_a_at) / Fold change /veh C10orf10 (11716521_a_at) / RFU C5orf56 (11738089_at) / Fold change /veh C5orf56 (11738089_at) / RFU CYB561 (11721691_x_at) / Fold change /veh CYB561 (11721691_x_at) / RFU ANKRD19P (11752326_a_at) / Fold change /veh ANKRD19P (11752326_a_at) / RFU OR2T12 /// OR2T33 /// OR2T8 (11738714_s_at) / Fold change /veh OR2T12 /// OR2T33 /// OR2T8 (11738714_s_at) / RFU VCAN (11748164_a_at) / Fold change /veh VCAN (11748164_a_at) / RFU JSRP1 (11732532_at) / Fold change /veh JSRP1 (11732532_at) / RFU KRTAP10-11 (11738290_x_at) / Fold change /veh KRTAP10-11 (11738290_x_at) / RFU MYO3A (11730013_a_at) / Fold change /veh MYO3A (11730013_a_at) / RFU EBF3 (11725865_a_at) / Fold change /veh EBF3 (11725865_a_at) / RFU CAMK2N1 (11719241_x_at) / Fold change /veh CAMK2N1 (11719241_x_at) / RFU C5orf56 (11738088_a_at) / Fold change /veh C5orf56 (11738088_a_at) / RFU OLFML3 (11715873_a_at) / Fold change /veh OLFML3 (11715873_a_at) / RFU LOC100653217 /// NTM (11731650_a_at) / Fold change /veh LOC100653217 /// NTM (11731650_a_at) / RFU MAPK11 (11762145_a_at) / Fold change /veh MAPK11 (11762145_a_at) / RFU FIZ1 (11724087_x_at) / Fold change /veh FIZ1 (11724087_x_at) / RFU OASL (11726364_x_at) / Fold change /veh OASL (11726364_x_at) / RFU SOX15 (11748057_x_at) / Fold change /veh SOX15 (11748057_x_at) / RFU CD79A (11719716_a_at) / Fold change /veh CD79A (11719716_a_at) / RFU HIST1H1D (11736915_at) / Fold change /veh HIST1H1D (11736915_at) / RFU CASKIN2 (11723855_a_at) / Fold change /veh CASKIN2 (11723855_a_at) / RFU LOC730098 (11760151_x_at) / Fold change /veh LOC730098 (11760151_x_at) / RFU OR4N2 (11742367_at) / Fold change /veh OR4N2 (11742367_at) / RFU PRRT2 (11749266_a_at) / Fold change /veh PRRT2 (11749266_a_at) / RFU SNX32 (11753110_a_at) / Fold change /veh SNX32 (11753110_a_at) / RFU CDHR5 (11726645_a_at) / Fold change /veh CDHR5 (11726645_a_at) / RFU RCAN1 (11760418_a_at) / Fold change /veh RCAN1 (11760418_a_at) / RFU FAM167A (11723789_a_at) / Fold change /veh FAM167A (11723789_a_at) / RFU FAM26E (11764081_at) / Fold change /veh FAM26E (11764081_at) / RFU ISYNA1 (11749810_s_at) / Fold change /veh ISYNA1 (11749810_s_at) / RFU ACY1 (11761880_at) / Fold change /veh ACY1 (11761880_at) / RFU 11764098_at / Fold change /veh 11764098_at / RFU SAMD14 (11745864_x_at) / Fold change /veh SAMD14 (11745864_x_at) / RFU NPB (11741838_a_at) / Fold change /veh NPB (11741838_a_at) / RFU TMPRSS6 (11731388_a_at) / Fold change /veh TMPRSS6 (11731388_a_at) / RFU KRTAP10-2 (11738614_at) / Fold change /veh KRTAP10-2 (11738614_at) / RFU ARHGAP8 /// PRR5-ARHGAP8 (11727945_x_at) / Fold change /veh ARHGAP8 /// PRR5-ARHGAP8 (11727945_x_at) / RFU KRTAP5-7 /// NADSYN1 (11734609_at) / Fold change /veh KRTAP5-7 /// NADSYN1 (11734609_at) / RFU RASL12 (11751679_a_at) / Fold change /veh RASL12 (11751679_a_at) / RFU CDKN2B (11736163_a_at) / Fold change /veh CDKN2B (11736163_a_at) / RFU PRF1 (11729649_at) / Fold change /veh PRF1 (11729649_at) / RFU, ZNF638 /// ZNF638-IT1 / Fold change vs veh, ZNF638 /// ZNF638-IT1 / RFU, PANK3 / Fold change vs veh, PANK3 / RFU, SH3YL1 / Fold change vs veh, SH3YL1 / RFU, ZEB2 / Fold change vs veh, ZEB2 / RFU, NRIP1 / Fold change vs veh, NRIP1 / RFU, PTTG1IP / Fold change vs veh, PTTG1IP / RFU, CAPN2 / Fold change vs veh, CAPN2 / RFU, MED14 / Fold change vs veh, MED14 / RFU, SNORA58 / Fold change vs veh, SNORA58 / RFU, C1orf63 / Fold change vs veh, C1orf63 / RFU, LRRFIP1 / Fold change vs veh, LRRFIP1 / RFU, NDUFAF7 / Fold change vs veh, NDUFAF7 / RFU, SLC12A2 / Fold change vs veh, SLC12A2 / RFU, IBTK / Fold change vs veh, IBTK / RFU, ESF1 / Fold change vs veh, ESF1 / Fold change vs veh, TMEM50B / RFU, TAOK1 / Fold change vs veh, TAOK1 / RFU, ACBD3 / Fold change vs veh, ACBD3 / RFU, TMA16 / Fold change vs veh, TMA16 / RFU, RWDD3 / Fold change vs veh, RWDD3 / RFU, BCAT1 / Fold change vs veh, BCAT1 / RFU, EDEM3 / Fold change vs veh, EDEM3 / RFU, TMEM33 / Fold change vs veh, TMEM33 / RFU, WDR75 / Fold change vs veh, WDR75 / RFU, AHCTF1 / Fold change vs veh, AHCTF1 / RFU, TFRC / Fold change vs veh, TFRC / RFU, ZDHHC17 / Fold change vs veh, ZDHHC17 / RFU, NOM1 / Fold change vs veh, NOM1 / RFU, ARL8B / Fold change vs veh, ARL8B / RFU, ZBTB11 / Fold change vs veh, ZBTB11 / RFU, TAMM41 / Fold change vs veh, TAMM41 / RFU, KIAA1704 /// LOC100996395 / Fold change vs veh, KIAA1704 /// LOC100996395 / RFU, ING1 / Fold change vs veh, ING1 / RFU, TRMT61B / Fold change vs veh, TRMT61B / RFU, FUBP3 / Fold change vs veh, FUBP3 / RFU, TP53 / Fold change vs veh, TP53 / RFU, TNKS2 / Fold change vs veh, TNKS2 / RFU, ZFP14 / Fold change vs veh, ZFP14 / RFU, ACTR2 / Fold change vs veh, ACTR2 / RFU, PPP3R1 / Fold change vs veh, PPP3R1 / RFU, PIK3R1 / Fold change vs veh, PIK3R1 / RFU, HNRNPA1 / Fold change vs veh, HNRNPA1 / RFU, RNF170 / Fold change vs veh, RNF170 / RFU, ZNF28 / Fold change vs veh, ZNF28 / RFU, RNGTT / Fold change vs veh, RNGTT / RFU, OGT / Fold change vs veh, OGT / RFU, BRD1 / Fold change vs veh, BRD1 / RFU, MARS / Fold change vs veh, MARS / RFU, ZNF655 / Fold change vs veh, ZNF655 / RFU, FAHD1 / Fold change vs veh, FAHD1 / RFU, BDP1 / Fold change vs veh, BDP1 / RFU, LRRCC1 / Fold change vs veh, LRRCC1 / RFU, ARID1A / Fold change vs veh, ARID1A / RFU, ZNF146 / Fold change vs veh, ZNF146 / RFU, ZNF330 / Fold change vs veh, ZNF330 / RFU, GPN3 / Fold change vs veh, GPN3 / RFU, C9orf123 / Fold change vs veh, C9orf123 / RFU, N4BP2L2 / Fold change vs veh, N4BP2L2 / RFU, ARFIP1 / Fold change vs veh, ARFIP1 / RFU, FAM179B / Fold change vs veh, FAM179B / RFU, BCL10 / Fold change vs veh, BCL10 / RFU, UHRF1BP1L / Fold change vs veh, UHRF1BP1L / RFU, BET1 / Fold change vs veh, BET1 / RFU, CNOT2 / Fold change vs veh, CNOT2 / RFU, ZNF268 / Fold change vs veh, ZNF268 / Fold change vs veh, ZNF507 / RFU, DGCR2 / Fold change vs veh, DGCR2 / RFU, WDSUB1 / Fold change vs veh, WDSUB1 / Fold change vs veh, HSP90B1 /// MIR3652 / RFU, ADSS / Fold change vs veh, ADSS / RFU, GK / Fold change vs veh, GK / RFU, ZNF148 / Fold change vs veh, ZNF148 / RFU, TAF9 / Fold change vs veh, TAF9 / RFU, SLC1A5 / Fold change vs veh, SLC1A5 / RFU, SLMO2 / Fold change vs veh, SLMO2 / RFU, ABCC4 / Fold change vs veh, ABCC4 / RFU, LOC101060439 /// RAP1B / Fold change vs veh, LOC101060439 /// RAP1B / RFU, RFX7 / Fold change vs veh, RFX7 / RFU, GTPBP10 / Fold change vs veh, GTPBP10 / RFU, CNEP1R1 / Fold change vs veh, CNEP1R1 / RFU, BIVM-ERCC5 /// ERCC5 / Fold change vs veh, BIVM-ERCC5 /// ERCC5 / RFU, ILF3 / Fold change vs veh, ILF3 / RFU 11762660_at / Fold change /veh 11762660_at / RFU VCAN (11757783_s_at) / Fold change /veh VCAN (11757783_s_at) / RFU DDX43 (11728927_at) / Fold change /veh DDX43 (11728927_at) / RFU KRT8 (11758188_x_at) / Fold change /veh KRT8 (11758188_x_at) / RFU NKD1 (11759106_at) / Fold change /veh NKD1 (11759106_at) / RFU SRD5A1 (11742802_a_at) / Fold change /veh SRD5A1 (11742802_a_at) / RFU TPSAB1 /// TPSB2 (11721975_s_at) / Fold change /veh TPSAB1 /// TPSB2 (11721975_s_at) / RFU GSTM3 (11746129_a_at) / Fold change /veh GSTM3 (11746129_a_at) / RFU IL23R (11737362_x_at) / Fold change /veh IL23R (11737362_x_at) / RFU TMEM51 (11727254_a_at) / Fold change /veh TMEM51 (11727254_a_at) / RFU PIWIL2 (11732686_x_at) / Fold change /veh PIWIL2 (11732686_x_at) / RFU ORM1 (11744905_x_at) / Fold change /veh ORM1 (11744905_x_at) / RFU CCDC152 (11743942_at) / Fold change /veh CCDC152 (11743942_at) / RFU ECM1 (11717891_a_at) / Fold change /veh ECM1 (11717891_a_at) / RFU IL23R (11748794_a_at) / Fold change /veh IL23R (11748794_a_at) / RFU TNFAIP8L3 (11732012_x_at) / Fold change /veh TNFAIP8L3 (11732012_x_at) / RFU MBOAT4 (11741988_at) / Fold change /veh MBOAT4 (11741988_at) / RFU 11764193_at / Fold change /veh 11764193_at / RFU TMEM53 (11763286_at) / Fold change /veh TMEM53 (11763286_at) / RFU MAGEB2 (11727129_at) / Fold change /veh MAGEB2 (11727129_at) / RFU TMEM200A (11744735_a_at) / Fold change /veh TMEM200A (11744735_a_at) / RFU CCDC152 (11751479_a_at) / Fold change /veh CCDC152 (11751479_a_at) / RFU FAM211A (11726209_a_at) / Fold change /veh FAM211A (11726209_a_at) / RFU RGS16 (11746705_a_at) / Fold change /veh RGS16 (11746705_a_at) / RFU VCAN (11755009_s_at) / Fold change /veh VCAN (11755009_s_at) / RFU RHOB (11743442_s_at) / Fold change /veh RHOB (11743442_s_at) / RFU RGS16 (11720943_a_at) / Fold change /veh RGS16 (11720943_a_at) / RFU RGS16 (11720944_at) / Fold change /veh RGS16 (11720944_at) / RFU, VPS4B / Fold change vs veh, VPS4B / RFU, CREB1 / Fold change vs veh, CREB1 / RFU, DNAJC13 / Fold change vs veh, DNAJC13 / RFU, GNAQ / Fold change vs veh, GNAQ / RFU, CDK5R1 / Fold change vs veh, CDK5R1 / RFU, ZRANB3 / Fold change vs veh, ZRANB3 / RFU, CUL4A / Fold change vs veh, CUL4A / RFU, CCNY / Fold change vs veh, CCNY / RFU, UFL1 / Fold change vs veh, UFL1 / RFU, COG3 / Fold change vs veh, COG3 / RFU, DIAPH2 / Fold change vs veh, DIAPH2 / RFU, SKA2 / Fold change vs veh, SKA2 / RFU, AFF3 / Fold change vs veh, AFF3 / RFU, LMF1 / Fold change vs veh, LMF1 / RFU, IPO11 / Fold change vs veh, IPO11 / RFU, DFFB / Fold change vs veh, DFFB / RFU, FOXP1 / Fold change vs veh, FOXP1 / RFU, CARD8 / Fold change vs veh, CARD8 / RFU, STRN3 / Fold change vs veh, STRN3 / RFU, ADK / Fold change vs veh, ADK / RFU, RASSF2 / Fold change vs veh, RASSF2 / RFU, WIPF1 / Fold change vs veh, WIPF1 / RFU, LARP1B / Fold change vs veh, LARP1B / RFU, RASA1 / Fold change vs veh, RASA1 / RFU, RB1 / Fold change vs veh, RB1 / RFU, PPFIA1 / Fold change vs veh, PPFIA1 / RFU, MAT2A / Fold change vs veh, MAT2A / RFU, CCT5 / Fold change vs veh, CCT5 / RFU, WDR92 / Fold change vs veh, WDR92 / RFU, CUX1 / Fold change vs veh, CUX1 / RFU, TTC7A / Fold change vs veh, TTC7A / RFU, TMEM135 / Fold change vs veh, TMEM135 / RFU, DEPTOR / Fold change vs veh, DEPTOR / RFU, CPM / Fold change vs veh, CPM / RFU, DNAJB6 / Fold change vs veh, DNAJB6 / RFU, CACNA2D3 / Fold change vs veh, CACNA2D3 / RFU, DTX4 / Fold change vs veh, DTX4 / RFU, TFCP2 / Fold change vs veh, TFCP2 / RFU, GMCL1 /// GMCL1P1 / Fold change vs veh, GMCL1 /// GMCL1P1 / RFU, AEBP2 / Fold change vs veh, AEBP2 / RFU, SNHG1 /// SNORD22 /// SNORD25 /// SNORD26 /// SNORD27 /// SNORD28 /// SNORD29 /// SNORD31 / Fold change vs veh, SNHG1 /// SNORD22 /// SNORD25 /// SNORD26 /// SNORD27 /// SNORD28 /// SNORD29 /// SNORD31 / Fold change (Aza/veh), C12orf56 (ProbeSet 11735607_a_at) / Fold change (ACY-1035/veh), C12orf56 (ProbeSet 11735607_a_at) / Fold change (Aza/veh), FGFR1OP (ProbeSet 11751329_s_at) / Fold change (ACY-1035/veh), FGFR1OP (ProbeSet 11751329_s_at) / Fold change (Aza/veh), VPS36 (ProbeSet 11739960_a_at) / Fold change (ACY-1035/veh), VPS36 (ProbeSet 11739960_a_at) / RFU SYPL1 (11715823_x_at) / Fold change /veh SYPL1 (11715823_x_at) / RFU IGFBP7 (11715501_s_at) / Fold change /veh IGFBP7 (11715501_s_at) / RFU REEP3 (11722064_at) / Fold change /veh REEP3 (11722064_at) / RFU IGLL1 (11728026_x_at) / Fold change /veh IGLL1 (11728026_x_at): dose or concentration left out as unconfirmed
Settings: MV-4-11 cells, 48 hours

Nc1ccc(-c2cccs2)cc1NC(=O)c1ccc2c(c1)cc(C1CC1)n2CCN1CCOCC1 [ACY-1035]
RFU PRB3 (11715151_x_at): 8.09 RFU
